In patent publication US12612380B2, “Non-lysosomal glucosylceramidase inhibitors and uses thereof” (ALECTOS THERAPEUTICS INC., priority 2019, dated 2026):
Where two headings read alike, the source gives them in different places.

Legend:
GBA2 [1] = target: T1, GBA2 (Homo sapiens, UniProt Q9HCG7); assay: Binding specificity (selectivity) for GBA2 over other enzymes; format: biochemical; conditions: compared to a suitable reference compound, e.g. NB-DNJ (miglustat) or AMP-DNM
T1 sequence (Q9HCG7 1-927): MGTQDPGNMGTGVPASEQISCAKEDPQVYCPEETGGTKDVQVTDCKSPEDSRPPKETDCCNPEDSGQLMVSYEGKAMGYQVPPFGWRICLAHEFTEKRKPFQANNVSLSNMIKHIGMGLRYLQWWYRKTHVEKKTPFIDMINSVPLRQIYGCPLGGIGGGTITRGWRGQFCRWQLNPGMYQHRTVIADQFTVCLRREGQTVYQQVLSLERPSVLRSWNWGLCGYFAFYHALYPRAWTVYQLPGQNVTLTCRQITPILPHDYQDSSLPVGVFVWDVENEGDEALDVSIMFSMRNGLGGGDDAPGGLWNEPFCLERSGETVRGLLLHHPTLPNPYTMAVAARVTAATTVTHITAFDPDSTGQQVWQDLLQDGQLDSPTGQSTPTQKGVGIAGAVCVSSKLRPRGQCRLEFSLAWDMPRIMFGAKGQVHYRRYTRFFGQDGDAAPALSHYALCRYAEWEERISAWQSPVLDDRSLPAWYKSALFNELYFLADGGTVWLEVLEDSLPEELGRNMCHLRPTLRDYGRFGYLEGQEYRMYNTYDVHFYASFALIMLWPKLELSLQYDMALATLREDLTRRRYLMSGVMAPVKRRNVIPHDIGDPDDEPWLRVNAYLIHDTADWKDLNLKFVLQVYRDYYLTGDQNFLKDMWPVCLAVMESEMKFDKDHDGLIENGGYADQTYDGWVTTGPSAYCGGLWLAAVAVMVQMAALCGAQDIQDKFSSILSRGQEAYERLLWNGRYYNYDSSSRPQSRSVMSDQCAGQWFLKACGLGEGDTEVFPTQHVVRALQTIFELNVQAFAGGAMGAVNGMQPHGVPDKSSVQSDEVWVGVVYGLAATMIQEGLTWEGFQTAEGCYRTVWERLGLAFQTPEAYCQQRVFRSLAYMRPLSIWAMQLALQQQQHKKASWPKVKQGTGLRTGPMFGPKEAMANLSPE
Description: In some embodiments, one or more of the compounds according to the invention may specifically bind a GBA2. In alternative embodiments, one or more of the compounds according to the invention may specifically bind the active site of a GBA2. […] In alternative embodiments, one or more of the compounds according to the invention may specifically bind the human non-lysosomal glucosylceramidase (GBA2) over the human lysosomal glucosylceramidase (GCase) and/or the human cytosolic glucosylceramidase (GBA3). In alternative embodiments, one or more of the compounds according to the invention may specifically bind the human non-lysosomal glucosylceramidase (GBA2) over the human glucosylceramide synthase (GCS). In alternative embodiments, one or more of the compounds according to the invention may specifically bind the human non-lysosomal glucosylceramidase (GBA2) over an intestinal alpha-glucosidase, where the intestinal alpha-glucosidase may be a sucrase-isomaltase or a maltase-glucoamylase.

[2] = Brain concentration when administered in vivo; conditions: compared to a suitable reference compound, e.g. NB-DNJ (miglustat) or AMP-DNM
Description: Permeability can be assessed using a variety of standard experimental techniques, including without limitation in situ perfusion, ex vivo tissue diffusion, in vitro cell monolayers (e.g. Caco-2 cells, MDCK cells, LLC-PK1 cells), and artificial cell membranes (e.g. PAMPA assay); suitable techniques for measuring effective permeability (Peff) or apparent permeability (Papp) are reviewed for example by Volpe in The AAPS Journal, 2010, 12(4), 670-678. In some embodiments, one or more of the compounds according to the invention may show enhanced permeability when tested in one or more of these assays for determining Peff or Papp. […] In some embodiments, “enhanced permeability” means an increase in measured Peff or Papp by any value between about 10% and about 100%, or of any integer value between about 10% and about 100%, for example, about 10%, 20%, 30%, 40%, 50%, 60%, 70%, 80%, 90%, 100%, or over 100%, or an increase by about 1-fold, 2-fold, or 3-fold, or more, as compared to a suitable reference compound such as, for example, N-butyldeoxynojirimycin (NB-DNJ, miglustat) or N-(5-adamantane-1-yl-methoxy)pentyl)-deoxynojirimycin (AMP-DNM, Genz-529648). In some embodiments, “enhanced permeability” means a measurable Papp value (i.e. a value greater than zero) in a suitable assay to measure Papp using in vitro cell monolayers. In some embodiments, “enhanced permeability” means a Papp value greater than 2×10^−6 cm/s in a suitable assay to measure Papp using in vitro cell monolayers. In alternative embodiments, “enhanced permeability” means a Papp value in the range 2×10^−6 cm/s to 40×10^−6 cm/s in a suitable assay to measure Papp using in vitro cell monolayers. In some embodiments, “higher brain concentration” means an increase in measured brain concentration when the compound is administered in vivo by any value between about 10% and about 100%, or of any integer value between about 10% and about 100%, for example, about 10%, 20%, 30%, 40%, 50%, 60%, 70%, 80%, 90%, 100%, or over 100%, or an increase by about 1-fold, 2-fold, 3-fold, 4-fold, 5-fold, 10-fold, 20-fold, 30-fold, 40-fold, or 50-fold, or more, as compared to a suitable reference compound such as, for example, N-butyldeoxynojirimycin (NB-DNJ, miglustat) or N-(5-adamantane-1-yl-methoxy)pentyl)-deoxynojirimycin (AMP-DNM, Genz-529648).

GBA2 [3] = target: T1, GBA2; assay: Determination of IC50 values for inhibition of GBA2 in cell lysate; format: biochemical; design: host or cells: HEK293T (lentiviral transduction, puromycin selection); used as cellular homogenate
Procedure, shortened: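 Fluorogenic 4-MU-β-glucoside (250 μM) turnover over 20 min at 37 °C, pH 5.5, measured after NaOH/glycine stop (ex 365, em 450 nm). Enzyme source: lysate (0.083 mg/mL) of lentivirally transduced GBA2-HEK293T, GCase blocked by 20 μM azaspiro-octanediol; compound preincubated 5 min; IC50 = 50% inhibition concentration.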

[4] = cellular homogenate of HEK293T cells overexpressing human GBA2, 250 μM 4-methylumbelliferone-β-D glucopyranoside, pH 5.5, 37° C., GCase inhibitor present, read-out: GBA2 IC50

Row | Compound | binding specificity (IC50 or Ki of other molecule / GBA2) (GBA2 [1]) | IC50 (GBA2 [3]; [4]) [nM] | brain concentration when administered in vivo [2] | IC50 (GBA2 [3]) [nM]
1 | C[C@@H]1[C@@H](O)[C@H](O)[C@@H](O)CN1CCc1cccc(Cl)c1F [Example 45, (2R,3R,4R,5S)-1-(3-chloro-2-fluorophenethyl)-2-methylpiperidine-3,4,5-triol] | enhanced binding specificity | – | higher brain concentrations | < 100
2 | C[C@@H]1[C@@H](O)[C@H](O)[C@@H](O)CN1CCc1c(F)ccc(Cl)c1F [Example 49, (2R,3R,4R,5S)-1-(3-chloro-2,6-difluorophenethyl)-2-methylpiperidine-3,4,5-triol] | enhanced binding specificity | – | higher brain concentrations | < 100
3 | C[C@@H]1[C@@H](O)[C@H](O)[C@@H](O)CN1CCc1ccc2c(c1)OCO2 [Example 70, (2R,3R,4R,5S)-1-(2-(benzo[d][1,3]dioxol-5-yl)ethyl)-2-methylpiperidine-3,4,5-triol] | enhanced binding specificity | – | higher brain concentrations | < 100
4 | C[C@@H]1[C@@H](O)[C@H](O)[C@@H](O)CN1CC1CCN(c2ccc(F)cc2)CC1 [Example 85, (2R,3R,4R,5S)-1-((1-(4-fluorophenyl)piperidin-4-yl)methyl)-2-methylpiperidine-3,4,5-triol] | – | < 100 | higher brain concentrations | –
5 | C[C@@H]1[C@@H](O)[C@H](O)[C@@H](O)CN1C[C@H]1CCCN(c2cccc(C(F)(F)F)n2)C1 [Example 139, (2R,3R,4R,5S)-2-methyl-1-(((R)-1-(6-(trifluoromethyl)pyridin-2-yl)piperidin-3-yl)methyl)piperidine-3,4,5-triol] | enhanced binding specificity | < 100 | – | –
6 | O[C@H]1[C@H](O)[C@@H](O)CN(CCc2c(F)cc(-c3ccccc3)cc2F)[C@@H]1CF [Example 151, (2S,3R,4R,5S)-1-(2-(3,5-difluoro-[1,1′-biphenyl]-4-yl)ethyl)-2-(fluoromethyl)piperidine-3,4,5-triol] | enhanced binding specificity | < 100 | – | –
7 | O[C@H]1[C@H](O)[C@@H](O)CN(CCc2cc3c(cc2F)OCO3)[C@@H]1CF [Example 152, (2S,3R,4R,5S)-1-(2-(6-fluorobenzo[d][1,3]dioxol-5-yl)ethyl)-2-(fluoromethyl)piperidine-3,4,5-triol] | enhanced binding specificity | – | – | < 100

Now from value to compound, other results behind:

Row | binding specificity (IC50 or Ki of other molecule / GBA2) (GBA2 [1]) | IC50 (GBA2 [3]; [4]) [nM] | Compound | brain concentration when administered in vivo [2] | IC50 (GBA2 [3]) [nM]
8 | enhanced binding specificity | < 100 | CC(C)[C@H]1CC[C@@H](CN2C[C@H](O)[C@@H](O)[C@H](O)[C@H]2C)CC1 [Example 7, (2R,3R,4R,5S)-1-(((1s,4S)-4-isopropylcyclohexyl)methyl)-2-methylpiperidine-3,4,5-triol] | higher brain concentrations | –
9 | enhanced binding specificity | < 100 | C[C@@H]1[C@@H](O)[C@H](O)[C@@H](O)CN1C[C@H]1CC[C@H](C(F)(F)F)CC1 [Example 12, (2R,3R,4R,5S)-2-methyl-1-(((1r,4R)-4-(trifluoromethyl)cyclohexyl)methyl)piperidine-3,4,5-triol] | higher brain concentrations | –
10 | enhanced binding specificity | < 100 | C[C@@H]1[C@@H](O)[C@H](O)[C@@H](O)CN1C[C@H]1CCCN(c2cnccc2C(F)(F)F)C1 [Example 140, (2R,3R,4R,5S)-2-methyl-1-(((R)-1-(4-(trifluoromethyl)pyridin-3-yl)piperidin-3-yl)methyl)piperidine-3,4,5-triol] | – | –
11 | enhanced binding specificity | < 100 | C[C@@H]1[C@@H](O)[C@H](O)[C@@H](O)CN1C[C@@H]1CCCN(c2ncccc2C(F)(F)F)C1 [Example 141, (2R,3R,4R,5S)-2-methyl-1-(((S)-1-(3-(trifluoromethyl)pyridin-2-yl)piperidin-3-yl)methyl)piperidine-3,4,5-triol] | – | –
12 | enhanced binding specificity | < 100 | C[C@@H]1[C@@H](O)[C@H](O)[C@@H](O)CN1C[C@@H]1CCCN(c2cnccc2C(F)(F)F)C1 [Example 142, (2R,3R,4R,5S)-2-methyl-1-(((S)-1-(4-(trifluoromethyl)pyridin-3-yl)piperidin-3-yl)methyl)piperidine-3,4,5-triol] | – | –
13 | enhanced binding specificity | < 100 | O[C@H]1[C@H](O)[C@@H](O)CN(C[C@H]2CC[C@H](C(F)(F)F)CC2)[C@@H]1CF [Example 147, (2S,3R,4R,5S)-2-(fluoromethyl)-1-(((1r,4S)-4-(trifluoromethyl)cyclohexyl)methyl)piperidine-3,4,5-triol] | – | –
